pEC50, pIC50: −log10 of the molar value. Read-outs that look alike come from different tables or passages of the source.
Columns and labels:
Pim1 kinase = Pim1 kinase (Homo sapiens, UniProt P11309); test: Pim1 ATP depletion assay; assay type: biochemical; details: for IC50: read-out: IC50 (μM) PIM1;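 as to all read-outs here: Luciferase-luciferin luminescence readout of residual ATP after PIM1 transfers phosphate to a peptide substrate, 40 µM ATP added, reaction run to roughly half ATP consumption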
Chain of Pim1 kinase (P11309 whole entry): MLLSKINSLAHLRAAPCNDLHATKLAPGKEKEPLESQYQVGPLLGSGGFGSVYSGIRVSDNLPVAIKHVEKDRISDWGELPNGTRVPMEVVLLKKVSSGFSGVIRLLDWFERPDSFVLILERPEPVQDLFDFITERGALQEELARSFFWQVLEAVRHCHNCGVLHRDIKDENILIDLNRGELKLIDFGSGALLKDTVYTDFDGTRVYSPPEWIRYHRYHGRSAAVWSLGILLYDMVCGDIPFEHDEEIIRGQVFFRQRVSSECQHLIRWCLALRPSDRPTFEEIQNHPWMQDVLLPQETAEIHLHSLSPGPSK

Pim2 kinase = Pim2 kinase (Homo sapiens, UniProt Q9P1W9); test: Pim2 ATP depletion assay; assay type: biochemical; details: for IC50: read-out: IC50 (μM) PIM2; for pIC50: read-out: PIM2 IC50;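 as to all read-outs here: Luciferase-based luminescent readout of ATP remaining after PIM2 phosphorylates a BAD peptide, final 5 nM enzyme, 4 µM ATP, 10 µM peptide, 2.5% DMSO, run to roughly half ATP consumption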
Chain of Pim2 kinase (Q9P1W9 whole entry): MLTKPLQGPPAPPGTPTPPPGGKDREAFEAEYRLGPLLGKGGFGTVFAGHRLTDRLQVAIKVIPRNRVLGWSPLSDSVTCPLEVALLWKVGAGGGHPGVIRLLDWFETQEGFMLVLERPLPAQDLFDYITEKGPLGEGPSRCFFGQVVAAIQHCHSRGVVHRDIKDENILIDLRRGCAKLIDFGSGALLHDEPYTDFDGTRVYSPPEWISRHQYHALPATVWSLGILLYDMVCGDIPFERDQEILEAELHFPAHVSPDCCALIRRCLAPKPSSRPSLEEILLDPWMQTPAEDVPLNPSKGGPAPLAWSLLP

Pim3 kinase = Pim3 kinase (Homo sapiens, UniProt Q86V86); test: Pim3 ATP depletion assay; assay type: biochemical; details: for IC50: read-out: IC50 (μM) PIM3; for pIC50: read-out: PIM3 IC50
[1] = system: KMS 11 (human myeloma cell line); test: Cell proliferation assay (CellTiter-Glo), KMS 11; assay type: cell-based; details: KMS11 cells; for EC50: read-out: EC50 (μM) KMS11; for pEC50: read-out: KMS11 EC50
Description: (§1) KMS 11 (human myeloma cell line), were cultured in IMDM supplemented with 10% FBS, sodium pyruvate and antibiotics. Cells were plated in the same medium at a density of 2000 cells per well into 96 well tissue culture plates, with outside wells vacant, on the day of assay. MM1.s (human myeloma cell line), were cultured in RPMI1640 supplemented with 10% FBS, sodium pyruvate and antibiotics. Cells were plated in the same medium at a density of 5000 cells per well into 96 well tissue culture plates, with outside wells vacant, on the day of assay.
(§2) Test compounds supplied in DMSO were diluted into DMSO at 500 times the desired final concentrations before dilution into culture media to 2 times final concentrations. Equal volumes of 2× compounds were added to the cells in 96 well plates and incubated at 37° C. for 3 days.
(§3) After 3 days plates were equilibrated to room temperature and equal volume of CellTiter-Glow Reagent (Promega) was added to the culture wells. The plates were agitated briefly and luminescent signal was measured with luminometer. The percent inhibition of the signal seen in cells treated with DMSO alone vs. cells treated with control compound was calculated and used to determine EC50 values (i.e., the concentration of a test compound that is required to obtain 50% of the maximum effect in the cells) for tested compounds, as shown in Example 763.

[2] = system: MM1.s (human myeloma cell line); test: Cell proliferation assay (CellTiter-Glo), MM1.s; assay type: cell-based; details: MM1.s cells; for EC50: read-out: EC50 (μM) MM1.s; for pEC50: read-out: MM1.s EC50
Description: as §1, §2, §3

KDR kinase = KDR kinase (Homo sapiens, UniProt P35968); test: KDR AlphaScreen assay; details: KDR IC50 (μM)
Chain of KDR kinase (P35968 20-1356): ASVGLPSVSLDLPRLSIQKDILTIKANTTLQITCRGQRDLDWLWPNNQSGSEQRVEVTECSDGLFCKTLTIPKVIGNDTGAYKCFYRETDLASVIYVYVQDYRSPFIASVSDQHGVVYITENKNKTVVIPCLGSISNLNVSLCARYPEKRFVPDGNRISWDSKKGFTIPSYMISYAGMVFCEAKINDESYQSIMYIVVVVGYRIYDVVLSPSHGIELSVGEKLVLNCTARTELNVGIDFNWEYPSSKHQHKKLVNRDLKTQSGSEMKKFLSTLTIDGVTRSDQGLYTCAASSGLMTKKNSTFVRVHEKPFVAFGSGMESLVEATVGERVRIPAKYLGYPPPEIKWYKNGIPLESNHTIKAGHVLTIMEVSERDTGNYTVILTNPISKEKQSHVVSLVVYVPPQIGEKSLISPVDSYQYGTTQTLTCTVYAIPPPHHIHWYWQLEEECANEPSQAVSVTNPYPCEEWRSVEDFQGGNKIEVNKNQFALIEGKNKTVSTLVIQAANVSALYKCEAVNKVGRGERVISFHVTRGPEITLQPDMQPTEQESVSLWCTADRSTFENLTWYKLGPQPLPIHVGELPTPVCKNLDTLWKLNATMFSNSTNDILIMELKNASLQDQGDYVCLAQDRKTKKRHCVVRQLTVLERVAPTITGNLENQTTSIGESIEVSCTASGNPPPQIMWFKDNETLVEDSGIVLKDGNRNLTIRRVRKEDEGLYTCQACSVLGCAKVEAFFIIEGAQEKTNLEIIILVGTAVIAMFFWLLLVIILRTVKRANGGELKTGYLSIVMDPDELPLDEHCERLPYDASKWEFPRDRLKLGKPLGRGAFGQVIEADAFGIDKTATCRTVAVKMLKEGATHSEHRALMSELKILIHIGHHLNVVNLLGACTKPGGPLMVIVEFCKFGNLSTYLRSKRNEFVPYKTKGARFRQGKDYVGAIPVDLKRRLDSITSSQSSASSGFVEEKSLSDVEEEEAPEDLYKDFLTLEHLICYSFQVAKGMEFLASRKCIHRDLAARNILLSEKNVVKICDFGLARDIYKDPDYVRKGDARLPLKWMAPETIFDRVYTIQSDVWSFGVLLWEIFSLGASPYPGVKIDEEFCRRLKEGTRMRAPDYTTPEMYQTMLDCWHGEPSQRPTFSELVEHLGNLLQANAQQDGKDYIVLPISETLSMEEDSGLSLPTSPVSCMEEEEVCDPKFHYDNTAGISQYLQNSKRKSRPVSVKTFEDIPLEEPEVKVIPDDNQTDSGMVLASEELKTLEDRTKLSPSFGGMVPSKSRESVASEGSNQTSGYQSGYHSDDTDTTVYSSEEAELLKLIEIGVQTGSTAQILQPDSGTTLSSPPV

HEL 92.1.7 cells = test: Cell proliferation assay (CellTiter-Glo), HEL 92.1.7; assay type: cell-based; details: Homo sapiens, read-out: EC50 (μM) HEL 92.1.7
In short: (§4)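 CellTiter-Glo luminescence was read after 3-day compound exposure at 37 °C of cells plated at 1000/well in RPMI1640 with 10% FBS. Signal was normalised between DMSO-treated and control-compound-treated wells. EC50 is the concentration giving 50% of maximal effect.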

PC3 cells = test: Cell proliferation assay (CellTiter-Glo), PC3; assay type: cell-based; details: Homo sapiens, PC-3
In short: as §4

[3] = Pim1 ATP depletion assay, read-out: PIM1 IC50

Row | SMILES | IC50 (Pim1 kinase; Pim1 ATP depletion assay) [µM] | IC50 (Pim2 kinase) [µM] | IC50 (Pim3 kinase) [µM] | EC50 [1] [µM] | EC50 [2] [µM] | IC50 (KDR kinase) [µM] | EC50 (HEL 92.1.7 cells) [µM] | EC50 (PC3 cells) [µM] | pIC50 (Pim1 kinase; [3]) | pIC50 (Pim2 kinase) | pIC50 (Pim3 kinase) | pEC50 [1] | pEC50 [2] | pIC50 (Pim1 kinase)
1 | COCCOc1nc(-c2ccc(N)c(C(=O)Nc3cnccc3N3CCC[C@H](N)C3)n2)cnc1N [Example 520, 3-Amino-6-[5-amino-6-(2-methoxy-ethoxy)-pyrazin-2-yl]-pyridine-2-carboxylic acid (3-amino-3,4,5,6-tetrahydro-2H-[1,4′]bipyridinyl-3′-yl)-amide] | < 1 | < 1 | < 1 | 5 to 10 | 5 to 10 | 1 to 10 | – | – | – | – | – | – | – | –
2 | CC(C)NC(=O)c1ccc(F)c(-c2ccc(N)c(C(=O)Nc3cnccc3N3CCC[C@H](N)C3)n2)c1 [Example 317, 3-amino-6-(2-fluoro-5-iso-propylcarbamoyl-phenyl)-pyridine-2-carboxylic acid ((S)-3-amino-3,4,5,6-tetra-hydro-2H-[1,4′]bipyridinyl-3′-yl)-amide] | < 1 | < 1 | < 1 | 1 to 5 | < 1 | – | 1 to 5 | > 10 | – | – | – | – | – | –
3 | CN(C)C(=O)c1ccc(F)c(-c2ccc(N)c(C(=O)Nc3cnccc3N3CCC[C@H](N)C3)n2)c1 [Example 328, 3-amino-6-(5-dimethyl-carbamoyl-2-fluoro-phenyl)-pyridine-2-carboxylic acid ((S)-3-amino-3,4,5,6-tetra-hydro-2H-[1,4′]bipyridinyl-3′-yl)-amide] | < 1 | < 1 | < 1 | < 1 | < 1 | – | 1 to 5 | – | – | – | – | – | – | –
4 | N[C@H]1CCCN(c2ccncc2NC(=O)c2cccc(-c3c(F)cccc3F)n2)C1 [Example 454, 6-(2,6-Difluoro-phenyl)-pyridine-2-carboxylic acid (3-amino-3,4,5,6-tetrahydro-2H-[1,4′]bi-pyridinyl-3′-yl)-amide] | < 1 | < 1 | < 1 | 1 to 5 | 5 to 10 | 10 to 25 | – | – | – | – | – | – | – | –
5 | CO[C@@H]1C[C@H](N)CN(c2ccncc2NC(=O)c2nc(-c3ccccc3)ccc2N)C1 [Example 580, 3-Amino-6-phenyl-pyridine-2-carboxylic acid (3-amino-5-methoxy-3,4,5,6-tetrahydro-2H-[1,4′]bipyridinyl-3′-yl)-amide] | – | – | – | – | – | – | – | – | > 6.00 | > 6.00 | > 6.00 | 5.30 to 6.00 | 5.30 to 6.00 | –
6 | CC(C)Oc1ccc(F)c(-c2nc(C(=O)Nc3cnccc3N3CCC[C@H](N)C3)c(N)cc2F)c1F [Example 496, 3-Amino-6-(2,6-difluoro-3-isopropoxy-phenyl)-5-fluoro-pyridine-2-carboxylic acid (3-amino-3,4,5,6-tetrahydro-2H-[1,4′]bipyridinyl-3′-yl)-amide] | < 1 | < 1 | < 1 | < 1 | < 1 | – | – | – | – | – | – | – | – | –
7 | Nc1ccc(-c2ncccc2F)nc1C(=O)Nc1cnccc1N1CCC[C@H](N)C1 [Example 702, 5-Amino-3′-fluoro-[2,2′]bi-pyridinyl-6-carboxylic acid (3-amino-3,4,5,6-tetrahydro-2H-[1,4′]bipyridinyl-3′-yl)-amide] | – | – | – | – | – | – | – | – | > 6.00 | > 6.00 | > 6.00 | 5.30 to 6.00 | 5.30 to 6.00 | –
8 | Nc1ccc(-c2c(F)cccc2F)nc1C(=O)Nc1cnccc1N1CC[C@H](F)[C@@H](N)C1 [Example 276, 3-Amino-6-(2,6-difluoro-phenyl)-pyridine-2-carboxylic acid (3-amino-4-fluoro-3,4,5,6-tetrahydro-2H-[1,4′]bipyridinyl-3′-yl)-amide] | < 1 | < 1 | < 1 | 1 to 5 | 5 to 10 | – | – | – | – | – | – | – | – | –
9 | Nc1ccc(-c2c(F)cccc2F)nc1C(=O)Nc1cnccc1N1CC[C@H](O)[C@H](N)C1 [Example 754, 3-Amino-6-(2,6-difluoro-phenyl)-pyridine-2-carboxylic acid (3-amino-4-hydroxy-3,4,5,6-tetra-hydro-2H-[1,4′]bipyridinyl-3′-yl)-amide] | – | – | – | – | – | – | – | – | – | > 6.00 | > 6.00 | > 6.00 | 5.30 to 6.00 | > 6.00
10 | Nc1ccc(-c2c(F)cccc2F)nc1C(=O)Nc1cnccc1N1CCCC2(CCNC2)C1 (stereo not shown) [Example 290, 3-Amino-6-(2,6-difluoro-phenyl)-pyridine-2-carboxylic acid [4-(2,7-diaza-spiro[4.5]dec-7-yl)-pyridin-3-yl]-amide] | < 1 | < 1 | < 1 | 1 to 5 | 1 to 5 | – | – | – | – | – | – | – | – | –
11 | Nc1cc(F)c(-c2ncccc2F)nc1C(=O)Nc1cnccc1N1CCC[C@H](N)C1 [Example 744, 5-Amino-3,3′-difluoro-[2,2′]bi-pyridinyl-6-carboxylic acid (3-amino-3,4,5,6-tetrahydro-2H-[1,4′]bipyridinyl-3′-yl)-amide] | – | – | – | – | – | – | – | – | > 6.00 | > 6.00 | > 6.00 | 5.30 to 6.00 | 5.30 to 6.00 | –
12 | CC(C)NC(=O)c1ccc(F)c(-c2nc(C(=O)Nc3cnccc3N3CCC[C@H](N)C3)ccc2F)c1 [Example 443, 5-Fluoro-6-(2-fluoro-5-isopropylcarbamoyl-phenyl)-pyridine-2-carboxylic acid (3-amino-3,4,5,6-tetrahydro-2H-[1,4′]bipyridinyl-3′-yl)-amide] | < 1 | < 1 | < 1 | 1 to 5 | 5 to 10 | – | – | – | – | – | – | – | – | –
13 | CO[C@@H]1C[C@H](N)CN(c2ccncc2NC(=O)c2nc(-c3cc(C(=O)NC(C)C)ccc3F)ccc2N)C1 [Example 298, 3-Amino-6-(2-fluoro-5-isopropylcarbamoyl-phenyl)-pyridine-2-carboxylic acid (3-amino-5-methoxy-3,4,5,6-tetra-hydro-2H-[1,4′]bipyridinyl-3′-yl)-amide] | < 1 | < 1 | < 1 | < 1 | < 1 | – | – | – | – | – | – | – | – | –
14 | N[C@H]1CCCN(c2ccncc2NC(=O)c2ccc(F)c(-c3ccccc3)n2)C1 [Example 442, 5-Fluoro-6-phenyl-pyridine-2-carboxylic acid (3-amino-3,4,5,6-tetrahydro-2H-[1,4′]bipyridinyl-3′-yl)-amide] | < 1 | < 1 | < 1 | 1 to 5 | 5 to 10 | – | – | – | – | – | – | – | – | –
15 | CCCOc1ccc(F)c(-c2ccc(N)c(C(=O)Nc3cnccc3N3C[C@@H](N)C[C@@H](F)C3)n2)c1 [Example 577, 3-Amino-6-(2-fluoro-5-propoxy-phenyl)-pyridine-2-carboxylic acid (3-amino-5-fluoro-3,4,5,6-tetrahydro-2H-[1,4′]bipyridinyl-3′-yl)-amide] | – | – | – | – | – | – | – | – | > 6.00 | > 6.00 | > 6.00 | 5.30 to 6.00 | 5.30 to 6.00 | –
16 | CCCOc1ccc(F)c(-c2ccc(N)c(C(=O)Nc3cnccc3N3C[C@@H](N)C[C@@H](OC)C3)n2)c1 [Example 579, 3-Amino-6-(2-fluoro-5-propoxy-phenyl)-pyridine-2-carboxylic acid (3-amino-5-methoxy-3,4,5,6-tetrahydro-2H-[1,4′]bi-pyridinyl-3′-yl)-amide] | – | – | – | – | – | – | – | – | > 6.00 | > 6.00 | > 6.00 | > 6.00 | 5.30 to 6.00 | –

Source: patent US20140249135A1, “PIM KINASE INHIBITORS AND METHODS OF THEIR USE” (NOVARTIS AG, priority 2007, published 2014)
